Reference: patent publication US6294650A, “Inhibition of mammalian telomerase by peptide nucleic acids” (The Board of Regents, University of Texas System, priority 1999, dated 2001)

Experiments:
human telomerase [1] = assay: TRAP assay of telomerase activity in permeabilized HME50-5 cells; format: cell-based; conditions: 37° C., read-out: IC50 (nM) Perm. Cells 37° C.
Method: To examine the ability of PNAs to inhibit telomerase activity within permeabilized cells HME50-5 cells were treated with a buffered solution containing a relatively low concentration of detergent (20 mM Tris-HCl, pH 8.3, 1.5 mM MgCl2, 68 mM KCl, 0.5% Tween 20, 1 mM EGTA, 5.0% glycerol, and 0.1 mM AEBSF). The telomerase activity in these cells was not further purified, and permeabilized cells were incubated with PNA and PS oligomers prior to assay for telomerase activity.
A further control experiment was performed to ensure that the observed. inhibition was due to PNA entry into permeabilized cells The TRAP assay was utilized to compare the level of telomerase activity retained inside permeabilized cells to activity which leaks into solution. This control was necessary to ensure that the observed inhibition was due to PNA inhibition of telomerase within cells. Permeabilized cells were centrifuged and the cell pellet and the cell-free supernatant were separately examined for telomere activity using the TRAP assay. Greater than 80% of telomerase activity remained associated with the cell pellet after this mild treatment, confirming that telomerase is largely retained inside permeabilized cells.
Telomerase activity was determined using the telomere repeat amplification protocol (TRAP) assay essentially as described (Piatyszek et al. (1995) Methods in Cell Science 17: 1) with the modification that the cellular extract was preincubated at 25° C. for 30 minutes with the PNA at the concentrations indicated. Following preincubation 3 μl of the cellular extract plus PNA was added to a PCR tube containing 46 μl of reaction buffer (20 mM Tris-HCl, pH 8.3, 1.5 MM MgCl2, 68 MM KCl, 0.05% Tween-20, 1 mM EGTA), 50 μM dNTPs, 0.1 μg TS primer (5'-[…]-3' (SEQ ID NO:23)), 5 attg ITAS template (25), 0.5 μM T4 gene 32 protein, 2 Units Taq polymerase, 4 μCi^32 P-α dCTP) above a wax barrier separating 0.1 μg of the CX, reverse primer (5'-[…]-3' (SEQ ID NO:24)), and incubated for 30 minutes to allow telomerase to elongate the TS primer. The tubes were transferred to a PCR thermocycler set at 94° C. for 3 minutes to melt the wax barrier, cycled 30 times (30 seconds at 95° C., 30 seconds at 55° C. and 30 seconds at 72° C.) followed by a 3 minute extension at 72° C. The samples were frozen at -80° C. and the wax barrier removed. The solution containing the PCR products (40 μl) was added to 3.3 μl of loading buffer and 20 μl was loaded onto a 10% non-denaturing polyacrylamide gel and separated by electrophoresis at 180 volts for 45 minutes followed by 280 volts for 1 hour and 45 minutes. Gels were fixed for 30 minutes (1:1 ethanol: water, 0.5 M NaCl, 40 mM NaOAc, pH 4.2) then exposed to a phosphorimager screen for quantitation. Phosphorimager analysis was performed utilizing a Molecular Dynamics model 425F phosphorimager. Data was processed using ImageQuant software version 3.3.
(§1) Varied concentrations of PNA were added to cell extracts containing the TS primer. Telomerase products were visualized by gel electrophoresis and the extent of inhibition was quantified by phosphorimager analysis by evaluating each lane of the gels separately. The lanes were further separated into two areas for evaluation; one for the internal amplification standard (ITAS) and the other for all telomerase products. A ratio of telomerase products to ITAS was determined and compared to a positive control in which no PNA had been added. This ratio was taken to indicate telomerase activity with the ratio of the positive control being assigned 100% activity. The extent of inhibition as a function of the concentration of the added PNA was plotted and these graphs were utilized to derive the IC50.
The potential for such interactions to interfere with the location of hTR by PNAs was evaluated by examining elongation under conditions more similar to those in vivo. PNAs were applied to HME50-5 cells that had been mildly permeabilized. […]

human telomerase [2] = assay: TRAP assay of telomerase activity in HME50-5 cell extracts preincubated with PNA or PS oligomer; format: biochemical
Method: Cells were derived from a human immortal primary breast epithelial cell line (HME50-5) that expresses telomerase at high levels. Cell extracts were obtained by resuspending a 100,000 cell pellet into 200 μl of lysis buffer (0.5% 3-[3-cholamidopropyl-dimethylammonio]-1-propane-sulfonate (CHAPS), 10 mM Tris-HCl, pH 7.5, 1 mM ethylenebis(oxyethylene-nitrilo)tetraacetic acid (EGTA), 5 mM β-mercaptoethanol, 0.1 mM 4-(2-aminoethyl)benzenesulfonyl fluoride (AEBSF), 10% glycerol). The suspension was mixed by pipetting at least three times and kept on ice for 30 minutes. The lysate was centrifuged at 16,000×g for 20 minutes at 4° C., and 160 μl of the supernatant was collected. The cells were then diluted 10-fold to obtain a 50 cell equivalent/μl stock suspension, aliquoted, frozen in liquid nitrogen, and stored at -80° C. These aliquots were utilized throughout our experiments to ensure consistency.
The tubes were transferred to a PCR thermocycler set at 94° C. for 3 minutes to melt the wax barrier, cycled 30 times (30 seconds at 95° C., 30 seconds at 55° C. and 30 seconds at 72° C.) followed by a 3 minute extension at 72° C. The samples were frozen at -80° C. and the wax barrier removed. […] Gels were fixed for 30 minutes (1:1 ethanol: water, 0.5 M NaCl, 40 mM NaOAc, pH 4.2) then exposed to a phosphorimager screen for quantitation. […] Data was processed using ImageQuant software version 3.3.
as §1, with “A ratio of telomerase products to ITAS was determined and compared to a positive control in which no PNA had been added.” left out
Telomerase activity was measured using the telomeric repeat amplification protocol (TRAP). Rather than measure the change in chromosome length over time, a process that requires weeks to produce definitive results and measures telomerase activity only indirectly, the TRAP assay measures the elongation of a short oligonucleotide primer (TS primer) known to act as an efficient substrate of telomerase. Cell extracts from a human immortal breast epithelial cell line, HME50-5, expressing telomerase were preincubated with PNAs to allow recognition of complementary sequences by Watson-Crick base-pairing. The TS primer was then added to initiate chain elongation by telomerase. Following elongation of the TS primer, the mixture was transferred to a thermocycler and polymerase chain reaction (PCR) was performed to amplify the products. Two potential template DNAs were present, and amplification products were primed from either an internal amplification standard (ITAS) or from the product of telomerase elongation of the TS primer. These amplification products were separated by gel electrophoresis and quantitated separately. A ratio of the amount of amplified products of telomerase activity to that derived from amplification of the ITAS standard was determined and compared to a positive control to which no PNA was added. This comparison allowed calculation of the inhibition of telomerase activity due to a given concentration of PNA.

[3] = HME50-5 cell extract, 25° C., 30 min preincubation, read-out: IC50 (nM) Cell Extract 25° C.
[4] = HME50-5 cell extract, 37° C., read-out: IC50 (nM) Cell Extract 37° C.

Row | Substance | IC50 (human telomerase [1]) | IC50 (human telomerase [2]; [3]) | IC50 (human telomerase [2]; [4]) | other results
1 | PNA (VIII): complementary PNA, sequence CCCTTCTCAGTTAGGGTTAG (all peptide nucleic acid (PNA)) | 400 nM | 200 nM | 300 nM | –
2 | PNA (V): complementary PNA, sequence AGTTAGGGTTAG (all peptide nucleic acid (PNA)) | 370 nM | 10 nM | 75 nM | –
3 | PNA (III): complementary PNA, sequence TTAGGGTTAG (all peptide nucleic acid (PNA)) | 500 nM | 200 nM | 400 nM | IC50 (human telomerase [2]; cell extract, 30 min preincubation, read-out: IC50 for inhibition of telomerase): 200 nM
4 | PNA (VI): complementary PNA, sequence CAGTTAGGGTTAG (all peptide nucleic acid (PNA)) | 75 nM | 10 nM | 50 nM | –
5 | PNA (X): complementary PNA, sequence GTTAGGGTTAGAC (antisense; all peptide nucleic acid (PNA)) | – | 10 nM | – | IC50 (human telomerase [2]; HME50-5 cell extract, 25° C., 30 min preincubation, listed as PNA X, read-out: IC50 (nM) Cell Extract 25° C.): ~10 nM
6 | PS (II): complementary phosphorothioate oligonucleotide CTCAGTTAGGGTTAG (all phosphorothioate, sugars by position and methylation of C not given here) [reference compound] | – | 100 nM | 700 nM | –
7 | PNA (IV): complementary PNA, sequence GTTAGGGTTAG (all peptide nucleic acid (PNA)) | 300 nM | – | – | –
8 | PNA (VII): complementary PNA, sequence CTCAGTTAGGGTTAG (all peptide nucleic acid (PNA)) | – | – | 70 nM | –
9 | PNA (XII): complementary PNA, sequence TAGGGTTAGACAA (all peptide nucleic acid (PNA)) | – | 0.9 nM | – | preincubation time to reach maximal inhibition (human telomerase [2]; 300 pM PNA): ninety; preincubation time to reach maximal inhibition (human telomerase [2]; 200 nM PNA): five; reversibility of inhibition once maximal inhibition attained (human telomerase [2]; lengthy incubation with primer and nucleotides): effectively irreversible
10 | PS (IV): non-complementary phosphorothioate oligonucleotide AGGATCTTCACCTAGATCCT (all phosphorothioate, sugars by position and methylation of C not given here) [reference compound] | – | 100 nM | 400 nM | –
11 | PNA (XIV): non-complementary PNA, sequence AGGATCTTCACCTAGATCCT (all peptide nucleic acid (PNA)) [reference compound] | – | > 33000 nM | > 33000 nM | inhibition of human telomerase activity (in words) (human telomerase [2]; cell extract): did not detectably inhibit
12 | PS (III): complementary phosphorothioate oligonucleotide TAGGGTTAGACAA (all phosphorothioate, sugars by position and methylation of C not given here) [reference compound] | – | 50 nM | 200 nM | –
13 | PNA (XIII): complementary PNA, sequence GTTAGGGTTAGACAA (all peptide nucleic acid (PNA)) | – | – | 50 nM | –
14 | PS (I): complementary phosphorothioate oligonucleotide 5'-GTTAGGGTTAG-3' (all phosphorothioate, sugars by position not given here) [reference compound] | – | 75 nM | 250 nM | –
15 | PNA (XV): non-complementary PNA, sequence TGTAAGGAACTAG (all peptide nucleic acid (PNA)) [reference compound] | – | > 33000 nM | > 33000 nM | inhibition of human telomerase activity (in words) (human telomerase [2]; cell extract): did not detectably inhibit
16 | PNA (XI): complementary PNA, sequence GGGTTAGACAA (all peptide nucleic acid (PNA)) | 70 nM | 10 nM | 50 nM | IC50 (human telomerase [2]; HME50-5 cell extract, 25° C., 30 min preincubation, listed as PNA XI, read-out: IC50 (nM) Cell Extract 25° C.): ~10 nM
17 | PS (V): non-complementary phosphorothioate oligonucleotide TGTAAGGAACTAG (all phosphorothioate, sugars by position and methylation of C not given here) [reference compound] | – | 100 nM | 450 nM | –
18 | PNA (IX): complementary PNA, sequence TAGGGTTAGAC (all peptide nucleic acid (PNA)) | – | 10 nM | – | IC50 (human telomerase [2]; HME50-5 cell extract, 25° C., 30 min preincubation, listed as PNA IX, read-out: IC50 (nM) Cell Extract 25° C.): ~10 nM
